Source: ChEMBL document CHEMBL5338769, “Discovery of Norisoboldine Analogue III11 as a Novel and Potent Aryl Hydrocarbon Receptor Agonist for the Treatment of Ulcerative Colitis” (J Med Chem, 2023)
The source made the active and inactive calls. The calls are words filed in the database; no cut-off is given here.

Columns and labels:
[1] = system: EL4; assay: Cytotoxicity against mouse EL4 cells assessed as inhibition of cell proliferation incubated for 72 hrs by MTT assay; type: functional, cell-based; conditions: for IC50: EL4, 72 h
[2] = target: T1, Aryl hydrocarbon receptor (Mus musculus, UniProt P30561); assay: Activation of AhR transcription in C57BL/6 mouse naive T cells assessed as increase in CYP1A1 mRNA expression at 3 uM measured after 72 hrs by qRT-PCR analysis relative to control; type: cell-based; conditions: t cell
T1 sequence (P30561 whole entry): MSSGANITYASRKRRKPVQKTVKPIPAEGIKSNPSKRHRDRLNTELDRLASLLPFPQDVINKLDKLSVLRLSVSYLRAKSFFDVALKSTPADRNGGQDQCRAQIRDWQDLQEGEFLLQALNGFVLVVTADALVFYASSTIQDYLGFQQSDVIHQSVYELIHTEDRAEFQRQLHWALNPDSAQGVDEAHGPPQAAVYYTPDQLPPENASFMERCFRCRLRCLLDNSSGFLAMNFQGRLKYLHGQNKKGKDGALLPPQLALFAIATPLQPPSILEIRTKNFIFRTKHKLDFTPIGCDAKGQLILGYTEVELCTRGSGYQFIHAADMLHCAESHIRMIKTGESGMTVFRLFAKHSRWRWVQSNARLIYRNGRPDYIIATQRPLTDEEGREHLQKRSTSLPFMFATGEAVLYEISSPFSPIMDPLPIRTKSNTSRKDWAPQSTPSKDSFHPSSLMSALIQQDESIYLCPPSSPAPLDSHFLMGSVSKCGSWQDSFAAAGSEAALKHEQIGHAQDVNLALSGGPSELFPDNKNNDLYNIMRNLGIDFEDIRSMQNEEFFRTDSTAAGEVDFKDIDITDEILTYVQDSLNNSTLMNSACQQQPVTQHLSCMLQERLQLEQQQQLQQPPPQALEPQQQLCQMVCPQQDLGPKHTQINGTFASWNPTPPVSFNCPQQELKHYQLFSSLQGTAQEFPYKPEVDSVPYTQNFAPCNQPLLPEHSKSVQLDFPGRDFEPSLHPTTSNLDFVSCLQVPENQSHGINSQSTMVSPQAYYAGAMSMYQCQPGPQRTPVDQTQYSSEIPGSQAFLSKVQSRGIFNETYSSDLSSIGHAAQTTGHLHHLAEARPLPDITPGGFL

[3] = target: T1, Aryl hydrocarbon receptor; assay: Activation of AhR transcription in C57BL/6 mouse naive T cells assessed as increase in CYP1A1 mRNA expression at 1 to 3 uM measured after 72 hrs by qRT-PCR analysis; type: cell-based; conditions: t cell, dose 1-3 µM
[4] = target: T1, Aryl hydrocarbon receptor; assay: Activation of AhR transcription in C57BL/6 mouse naive T cells assessed as increase in CYP1A1 mRNA expression at 1 uM by qRT-PCR analysis; type: cell-based; conditions: t cell
[5] = target: T1, Aryl hydrocarbon receptor; assay: Activation of AhR transcription in C57BL/6 mouse naive T cells assessed as increase in CYP1A1 mRNA expression at 1 to 3 uM by qRT-PCR analysis; type: cell-based; conditions: t cell, dose 1-3 µM
[6] = target: T1, Aryl hydrocarbon receptor; assay: Activation of AhR transcription in C57BL/6 mouse naive T cells assessed as increase in UGT1A1 mRNA expression at 1 to 3 uM by qRT-PCR analysis; type: cell-based; conditions: t cell, dose 1-3 µM
[7] = target: T1, Aryl hydrocarbon receptor; assay: Activation of AhR transcription in C57BL/6 mouse naive T cells assessed as increase in AhRR mRNA expression at 1 to 3 uM by qRT-PCR analysis; type: cell-based; conditions: t cell, dose 1-3 µM
[8] = target: T1, Aryl hydrocarbon receptor; assay: Activation of AhR transcription in C57BL/6 mouse naive T cells assessed as increase in CYP1B1 mRNA expression at 1 to 3 uM by qRT-PCR analysis; type: cell-based; conditions: t cell, dose 1-3 µM

COc1cc2c3c(c1OC)-c1ccc(O)cc1CC3NCC2 (stereo unspecified)
IC50 [1]: 64.4 µM
Activity [2]: 150.7%

O=Cc1cc(OCc2ccccc2)ccc1Br
Activity [3]: Not Active

COc1cc2c3c(c1OC)-c1ccccc1CC3NCC2 (stereo unspecified) [NORNUCIFERINE]
IC50 [1]: 26.2 µM
Activity [4]: Active

COc1cc2c(cc1O)CC1NCCc3cc(OC)c(OC)c-2c31 (stereo unspecified)
IC50 [1]: 48.4 µM
Activity [4]: Active

COc1cc2c3c(c1OC)-c1ccccc1CC3N(C)CC2 (stereo not drawn) [(+/-)-NUCIFERINE]
Activity [5]: Not Active
IC50 [1]: 35.9 µM
Activity [6]: Not Active
Activity [7]: Not Active
Activity [8]: Not Active

COc1cccc(CCNC(=O)OCc2ccccc2)c1
Activity [3]: Not Active

COc1ccc2c(c1)CCN(C(=O)OCc1ccccc1)C2Cc1cc(OCc2ccccc2)ccc1Br (stereo unspecified)
Activity [3]: Not Active

COc1cc2c(cc1OC)-c1c(OC)c(OC)cc3c1C(C2)NCC3 (stereo unspecified)
Activity [5]: Not Active
IC50 [1]: 13.9 µM
Activity [6]: Not Active
Activity [7]: Not Active
Activity [8]: Not Active

Oc1ccc2c(c1)CC1NCCc3cccc-2c31 (stereo unspecified)
Activity [1]: inactive

O=Cc1cc(O)ccc1Br
Activity [3]: Not Active
